Like-named read-outs stand apart in the source and are kept apart here.

For this experiment, the target named is WDR5 protein (Homo sapiens (Human), UniProt P61964). Nature of the experiment: Surface Plasmon Resonance (SPR) assay. Format: binding. As to conditions: SPR; for residence time: τ=1/koff, read-out: Residence Time (t, min).
Where [1] appears, read: Table 1, read-out: WDR5 binding affinity (KD).
Where [2] appears, read: Table 2, read-out: WDR5 binding affinity SPR (KD).

The term Kd denotes the concentration at which binding is half-saturated. On to `COc1cc(C(F)(F)F)c(C(=O)Nc2cc(-c3cc(CN4CCC(C(C)C)C4)ccc3F)ccc2N2CCN(C)CC2)cn1` (stereo in doubt) [Example 53, (R)—N-(2′-fluoro-5′-((3-isopropylpyrrolidin-1-yl)methyl)-4-(4-methylpiperazin-1-yl)-[1,1′-biphenyl]-3-yl)-6-methoxy-4-(trifluoromethyl)nicotinamide], for which the dissociation constant (Kd) under setting [1] was over 0.2 µM and the Kd under setting [2] was over 0.2 µM.
What is called residence time is the mean lifetime of the complex, commonly the reciprocal of the off-rate. `CN1CCN(c2ccc(-c3cc(C(N)=O)c(O)cc3F)cc2NC(=O)c2c[nH]c(=O)cc2C(F)(F)F)CC1` [Example 4, N-(5′-carbamoyl-2′-fluoro-4′-hydroxy-4-(4-methylpiperazin-1-yl)-[1,1′-biphenyl]-3-yl)-6-oxo-4-(trifluoromethyl)-1,6-dihydropyridine-3-carboxamide]: the residence time is 0.88 min. Under setting [1], the Kd was determined as 0.086 µM. Further, the dissociation constant Kd under setting [2] turned out to be 0.086 µM.
For `CN1CCN(c2ccc(-c3cc(OC(F)(F)F)ccc3F)cc2NC(=O)c2c[nH]c(=O)cc2C(F)(F)F)CC1` [Example 5, N-(2′-fluoro-4-(4-methylpiperazin-1-yl)-5′-(trifluoromethoxy)-[1,1′-biphenyl]-3-yl)-6-oxo-4-(trifluoromethyl)-1,6-dihydropyridine-3-carboxamide], the residence time was 1.88 min. Moreover, the Kd under setting [1] turned out to be 0.029 µM. Moreover, the equilibrium dissociation constant (Kd) under setting [2] is 0.029 µM.
For the molecule `COc1cccc(C(=O)Nc2cc(-c3cc(CN4CCOCC4)ccc3F)ccc2N2CCN(C)CC2)c1` [Example 10, N-(2′-fluoro-4-(4-methylpiperazin-1-yl)-5′-(morpholinomethyl)-[1,1′-biphenyl]-3-yl)-3-methoxybenzamide], the dissociation constant (Kd) under setting [1] came out at 1 µM and the Kd under setting [2] was found to be 1 µM.
Consider `Cc1c(F)ccc(C(=O)Nc2cc(-c3cc(CN4CCOCC4)ccc3F)ccc2N2CCN(C)CC2)c1Cl` [Example 12, 2-chloro-4-fluoro-N-(2′-fluoro-4-(4-methylpiperazin-1-yl)-5′-(morpholinomethyl)-[1,1′-biphenyl]-3-yl)-3-methylbenzamide], for which the residence time worked out at 0.6 min. The Kd under setting [1] is 0.093 µM. Under setting [2], the Kd is 0.093 µM.
With `COC(=O)c1ccc(F)c(-c2ccc(N3CCN(C)CC3)c(NC(=O)c3c[nH]c(=O)cc3C(F)(F)F)c2)c1` [Example 14, methyl 6-fluoro-4′-(4-methylpiperazin-1-yl)-3′-(6-oxo-4-(trifluoromethyl)-1,6-dihydropyridine-3-carboxamido)-[1,1′-biphenyl]-3-carboxylate], the residence time came to 1.36 min. The Kd under setting [1] was 0.026 µM. For the same molecule, under setting [2], the equilibrium dissociation constant (Kd) is 0.026 µM.
As to `CN1CCN(c2ccc(-c3cc(CNC4CC4)ccc3F)cc2NC(=O)c2c[nH]c(=O)cc2C(F)(F)F)CC1` [Example 17, N-(5′-((cyclopropylamino)methyl)-2′-fluoro-4-(4-methylpiperazin-1-yl)-[1,1′-biphenyl]-3-yl)-6-oxo-4-(trifluoromethyl)-1,6-dihydropyridine-3-carboxamide], the residence time came to 4.25 min. Besides, the dissociation constant Kd under setting [1] is 0.014 µM. The Kd under setting [2] is 0.014 µM.
As to `Cc1cc(C(=O)Nc2cc(-c3ccc(OC4CCOCC4)nc3F)ccc2N2CCN(C)CC2)cc(C)c1F` [Example 19, 4-fluoro-N-(5-(2-fluoro-6-((tetrahydro-2H-pyran-4-yl)oxy)pyridin-3-yl)-2-(4-methylpiperazin-1-yl)phenyl)-3,5-dimethylbenzamide], the residence time came out at 1.44 min. In addition, under setting [1], the Kd was 0.071 µM. Besides, the Kd under setting [2] amounted to 0.071 µM.
For `CN1CCN(c2ccc(-c3cc(CN4CCOCC4)ccc3F)cc2NC(=O)c2n[nH]c(=O)cc2C(F)(F)F)CC1` [Example 20, N-(2′-fluoro-4-(4-methylpiperazin-1-yl)-5′-(morpholinomethyl)-[1,1′-biphenyl]-3-yl)-6-oxo-4-(trifluoromethyl)-1,6-dihydropyridazine-3-carboxamide], the residence time turned out to be 0.41 min. In addition, the dissociation constant (Kd) under setting [1] is 0.076 µM. The Kd under setting [2] was determined as 0.076 µM.
Take `CN1CCN(c2ccc(-c3cc(OCC4CC4)c(F)cc3F)cc2NC(=O)c2c[nH]c(=O)cc2C(F)(F)F)CC1` [Example 21, N-(5′-(cyclopropylmethoxy)-2′,4′-difluoro-4-(4-methylpiperazin-1-yl)-[1,1′-biphenyl]-3-yl)-6-oxo-4-(trifluoromethyl)-1,6-dihydropyridine-3-carboxamide]: the residence time was 1.75 min. Besides, under setting [1], the Kd amounted to 0.019 µM. In addition, the Kd under setting [2] turned out to be 0.019 µM.
Take `CN1CCN(c2ccc(-c3ccc(N4CCCC4)nc3F)cc2NC(=O)c2c[nH]c(=O)cc2C(F)(F)F)CC1` [Example 22, N-(5-(2-fluoro-6-(pyrrolidin-1-yl)pyridin-3-yl)-2-(4-methylpiperazin-1-yl)phenyl)-6-oxo-4-(trifluoromethyl)-1,6-dihydropyridine-3-carboxamide]: the residence time was 2.3 min. Besides, the Kd under setting [1] came out at 0.017 µM. The Kd under setting [2] worked out at 0.017 µM.
For the molecule `CN1CCN(c2ccc(-c3cccc(CN4CCOCC4)c3F)cc2NC(=O)c2c[nH]c(=O)cc2C(F)(F)F)CC1` [Example 23, N-(2′-fluoro-4-(4-methylpiperazin-1-yl)-3′-(morpholinomethyl)-[1,1′-biphenyl]-3-yl)-6-oxo-4-(trifluoromethyl)-1,6-dihydropyridine-3-carboxamide], the residence time was 0.56 min. Further, the dissociation constant (Kd) under setting [1] was 0.079 µM. In addition, the Kd under setting [2] came out at 0.079 µM.
As for `Cc1cccc(C(=O)Nc2cc(-c3cc(CN4CCOCC4)ccc3F)ccc2N2CCN(C)CC2)c1` [Example 24, N-(2′-fluoro-4-(4-methylpiperazin-1-yl)-5′-(morpholinomethyl)-[1,1′-biphenyl]-3-yl)-3-methylbenzamide], the Kd by setting is: under setting [1], 5.03 µM; under setting [2], 5.03 µM.
`CN1CCN(c2ccc(-c3ccccc3F)cc2NC(=O)c2c[nH]c(=O)cc2C(F)(F)F)CC1` [Example 25, N-(2′-fluoro-4-(4-methylpiperazin-1-yl)-[1,1′-biphenyl]-3-yl)-6-oxo-4-(trifluoromethyl)-1,6-dihydropyridine-3-carboxamide]: the residence time was determined as 0.94 min. For the same molecule, under setting [1], the dissociation constant (Kd) was 0.102 µM. Under setting [2], the dissociation constant (Kd) came out at 0.102 µM.
Regarding `COc1cc(C(F)(F)F)c(C(=O)Nc2cc(-c3cc(CN4CCC(N5CCOCC5)CC4)ccc3F)ccc2N2CCN(C)CC2)cn1` [Example 52, N-(2′-fluoro-4-(4-methylpiperazin-1-yl)-5′-((4-morpholinopiperidin-1-yl)methyl)-[,1′-biphenyl]-3-yl)-6-methoxy-4-(trifluoromethyl)nicotinamide], the equilibrium dissociation constant (Kd) reads like this: under setting [1], over 0.2 µM; under setting [2], over 0.2 µM.
In the case of `COc1cc(C(F)(F)F)c(C(=O)Nc2cc(-c3cc(CN4CCN(C(C)=O)CC4)ccc3F)ccc2N2CCN(C)CC2)cn1` [Example 54, N-(5′-((4-acetylpiperazin-1-yl)methyl)-2′-fluoro-4-(4-methylpiperazin-1-yl)-[1,1′-biphenyl]-3-yl)-6-methoxy-4-(trifluoromethyl)nicotinamide], the Kd under setting [1] is over 0.2 µM and the Kd under setting [2] is over 0.2 µM.
On to `COc1cc(C(F)(F)F)c(C(=O)Nc2cc(-c3cc(CN4CCC(F)CC4)ccc3F)ccc2N2CCN(C)CC2)cn1` [Example 55, N-(2′-fluoro-5′-((4-fluoropiperidin-1-yl)methyl)-4-(4-methylpiperazin-1-yl)-[1,1′-biphenyl]-3-yl)-6-methoxy-4-(trifluoromethyl)nicotinamide], for which the equilibrium dissociation constant (Kd) is over 0.2 µM under setting [1] and over 0.2 µM under setting [2].
For `COc1cc(C(F)(F)F)c(C(=O)Nc2cc(-c3cc(CN4C5COCC4C5)ccc3F)ccc2N2CCN(C)CC2)cn1` [Example 56, N-(5′-(3-oxa-6-azabicyclo[3.1.1]heptan-6-ylmethyl)-2′-fluoro-4-(4-methylpiperazin-1-yl)-[1,1′-biphenyl]-3-yl)-6-methoxy-4-(trifluoromethyl)nicotinamide], the equilibrium dissociation constant (Kd) under setting [1] is over 0.2 µM and the Kd under setting [2] is over 0.2 µM.
Consider `COc1cc(C(F)(F)F)c(C(=O)Nc2cc(-c3cc(CN4CC[C@@H](S(C)(=O)=O)C4)ccc3F)ccc2N2CCN(C)CC2)cn1` [Example 57, (R)—N-(2′-fluoro-4-(4-methylpiperazin-1-yl)-5′-((3-(methylsulfonyl)pyrrolidin-1-yl)methyl)-[1,1′-biphenyl]-3-yl)-6-methoxy-4-(trifluoromethyl)nicotinamide], for which the dissociation constant Kd under setting [1] is over 0.2 µM and the Kd under setting [2] was over 0.2 µM.
For `COc1cc(C(F)(F)F)c(C(=O)Nc2cc(-c3cc(CN(C)[C@H]4CCOC4)ccc3F)ccc2N2CCN(C)CC2)cn1` [Example 58, (S)—N-(2′-fluoro-5′-((methyl(tetrahydrofuran-3-yl)amino)methyl)-4-(4-methylpiperazin-1-yl)-[1,1′-biphenyl]-3-yl)-6-methoxy-4-(trifluoromethyl)nicotinamide], the Kd was over 0.2 µM under setting [1] and over 0.2 µM under setting [2].
For `COc1cc(C(F)(F)F)c(C(=O)Nc2cc(-c3cc(CN4CCOC(C)(C)C4)ccc3F)ccc2N2CCN(C)CC2)cn1` [Example 59, N-(5′-((2,2-dimethylmorpholino)methyl)-2′-fluoro-4-(4-methylpiperazin-1-yl)-[1,1′-biphenyl]-3-yl)-6-methoxy-4-(trifluoromethyl)nicotinamide], the Kd under setting [1] is over 0.2 µM and the Kd under setting [2] was over 0.2 µM.
Take `CN1CCN(c2ccc(-c3cc(CN4CCOCC4)ccc3F)cc2NC(=O)c2c[nH]c(=O)cc2C(F)(F)F)CC1COC(=O)C(C)(C)C` (stereo not shown) [Example 64, (4-(2′-fluoro-5′-(morpholinomethyl)-3-(6-oxo-4-(trifluoromethyl)-1,6-dihydropyridine-3-carboxamido)-[1,1′-biphenyl]-4-yl)-1-methylpiperazin-2-yl)methyl pivalate]: the Kd was over 0.2 µM under setting [1] and 0.102 µM under setting [2].
For the molecule `C[C@@H]1CN(c2ccc(-c3c(F)ccc(C#N)c3F)cc2NC(=O)c2c[nH]c(=O)cc2C(F)(F)F)C[C@H](C)N1C` [Example 78, N-(3′-cyano-2′,6′-difluoro-4-((3S,5R)-3,4,5-trimethylpiperazin-1-yl)-[1,1′-biphenyl]-3-yl)-6-oxo-4-(trifluoromethyl)-1,6-dihydropyridine-3-carboxamide], the residence time stood at 2.5 min. In addition, the Kd under setting [1] was determined as 0.039 µM. Also, the Kd under setting [2] stood at 0.039 µM.

The values above are taken from US11174250B2, “Substituted carboxamides as inhibitors of WDR5 protein-protein binding” (PROPELLON THERAPEUTICS INC., priority 2016, dated 2021).
